Test results as given in ChEMBL document CHEMBL1201862, “PubChem BioAssay data set” (2004).
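Results reflect a 48-hour exposure of cells in 96-well plates to compound at five concentrations. GI50 marks 50% less growth.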 Active and inactive are the calls of the source. Cut-off read from the data, not from the text of the source: active = GI50 up to about 1.1 µM and inactive = higher.

Experiments:
Test in all cases: DTP human tumour cell line panel, 48 h
[1] = tested on: 786-0
[2] = tested on: A498
[3] = tested on: A549
[4] = tested on: ACHN
[5] = tested on: CAKI-1
[6] = tested on: CCRF-CEM
[7] = tested on: COLO 205
[8] = tested on: DLD-1
[9] = tested on: DMS-273
[10] = tested on: EKVX
[11] = tested on: HCC 2998
[12] = tested on: HCT-116
[13] = tested on: HCT-15
[14] = tested on: HL-60
[15] = tested on: HOP-18
[16] = tested on: HOP-62
[17] = tested on: IGROV-1
[18] = tested on: K562
[19] = tested on: KM-20L2
[20] = tested on: KM12
[21] = tested on: M14
[22] = tested on: M19-MEL
[23] = tested on: MOLT-4
[24] = tested on: Malme-3M
[25] = tested on: NCI-H226
[26] = tested on: NCI-H460
[27] = tested on: NCI-H522
[28] = tested on: OVCAR-3
[29] = tested on: OVCAR-4
[30] = tested on: OVCAR-8
[31] = tested on: RPMI-8226
[32] = tested on: RXF 393
[33] = tested on: RXF 631
[34] = tested on: SF-268
[35] = tested on: SF-539
[36] = tested on: SK-MEL-28
[37] = tested on: SK-MEL-2
[38] = tested on: SK-MEL-5
[39] = tested on: SK-OV-3
[40] = tested on: SN12C
[41] = tested on: SNB-19
[42] = tested on: SNB-75
[43] = tested on: SNB-78
[44] = tested on: SR
[45] = tested on: SW-620
[46] = tested on: TK-10
[47] = tested on: U-251
[48] = tested on: UACC-257
[49] = tested on: UACC-62
[50] = tested on: UO-31
[51] = tested on: DMS-114
[52] = tested on: HOP-92
[53] = tested on: HT-29
[54] = tested on: LOX IMVI
[55] = tested on: LXFL 529
[56] = tested on: NCI-H23
[57] = tested on: OVCAR-5
[58] = tested on: SF-295
[59] = tested on: XF498

CSc1nsc(-c2ccccc2)[s+]1.[O-][Cl+3]([O-])([O-])[O-]
GI50 [1]: > 100 µM (inactive) | GI50 [2]: > 100 µM (inactive) | GI50 [3]: > 100 µM (inactive) | GI50 [4]: > 100 µM (inactive) | GI50 [5]: > 100 µM (inactive) | GI50 [6]: > 100 µM (inactive) | GI50 [7]: > 100 µM (inactive) | GI50 [8]: > 100 µM (inactive) | GI50 [9]: > 100 µM (inactive) | GI50 [10]: > 100 µM (inactive) | GI50 [11]: > 100 µM (inactive) | GI50 [12]: > 100 µM (inactive) | GI50 [13]: > 100 µM | GI50 [14]: 72.1 µM (inactive) | GI50 [15]: > 100 µM (inactive) | GI50 [16]: > 100 µM (inactive) | GI50 [17]: > 100 µM (inactive) | GI50 [18]: 64.1 µM (inactive) | GI50 [19]: > 100 µM (inactive) | GI50 [20]: > 100 µM (inactive) | GI50 [21]: > 100 µM (inactive) | GI50 [22]: > 100 µM (inactive) | GI50 [23]: > 100 µM (inactive) | GI50 [24]: > 100 µM (inactive) | GI50 [25]: > 100 µM (inactive) | GI50 [26]: > 100 µM (inactive) | GI50 [27]: > 100 µM (inactive) | GI50 [28]: > 100 µM (inactive) | GI50 [29]: > 100 µM (inactive) | GI50 [30]: > 100 µM (inactive) | GI50 [31]: > 100 µM (inactive) | GI50 [32]: > 100 µM (inactive) | GI50 [33]: > 100 µM (inactive) | GI50 [34]: > 100 µM (inactive) | GI50 [35]: > 100 µM (inactive) | GI50 [36]: > 100 µM (inactive) | GI50 [37]: > 100 µM (inactive) | GI50 [38]: > 100 µM (inactive) | GI50 [39]: > 100 µM (inactive) | GI50 [40]: > 100 µM (inactive) | GI50 [41]: > 100 µM (inactive) | GI50 [42]: > 100 µM (inactive) | GI50 [43]: > 100 µM (inactive) | GI50 [44]: > 100 µM (inactive) | GI50 [45]: > 100 µM (inactive) | GI50 [46]: > 100 µM (inactive) | GI50 [47]: > 100 µM (inactive) | GI50 [48]: > 100 µM (inactive) | GI50 [49]: > 100 µM (inactive) | GI50 [50]: > 100 µM (inactive)

C=C1C(=O)C23C(O)C1CCC2C12CO[C@]3(O)[C@@H](O)C1C(C)(C)CCC2O (stereo partly specified)
GI50 [1]: 12.2 µM (inactive) | GI50 [2]: 21.2 µM (inactive) | GI50 [3]: 18.5 µM (inactive) | GI50 [4]: 14.1 µM (inactive) | GI50 [5]: 15.2 µM (inactive) | GI50 [6]: 1.63 µM (inactive) | GI50 [7]: 2.89 µM (inactive) | GI50 [8]: 15.3 µM (inactive) | GI50 [51]: 5.82 µM (inactive) | GI50 [9]: 14.7 µM (inactive) | GI50 [10]: 15 µM (inactive) | GI50 [11]: 16.1 µM (inactive) | GI50 [12]: 10.4 µM (inactive) | GI50 [13]: 11.9 µM | GI50 [14]: 5.01 µM (inactive) | GI50 [15]: 11.7 µM (inactive) | GI50 [16]: 24.4 µM (inactive) | GI50 [52]: 3.49 µM (inactive) | GI50 [53]: 13.5 µM (inactive) | GI50 [17]: 15.1 µM (inactive) | GI50 [18]: 3.67 µM (inactive) | GI50 [19]: 16.1 µM (inactive) | GI50 [20]: 16.1 µM (inactive) | GI50 [54]: 16.5 µM (inactive) | GI50 [55]: 2.11 µM (inactive) | GI50 [21]: 11.6 µM (inactive) | GI50 [22]: 10.7 µM (inactive) | GI50 [23]: 3.87 µM (inactive) | GI50 [24]: 5.92 µM (inactive) | GI50 [25]: 18.8 µM (inactive) | GI50 [56]: 19.6 µM (inactive) | GI50 [26]: 11.2 µM (inactive) | GI50 [27]: 0.798 µM (active) | GI50 [28]: 16.4 µM (inactive) | GI50 [57]: 20.2 µM (inactive) | GI50 [30]: 7.5 µM (inactive) | GI50 [31]: 3.75 µM (inactive) | GI50 [32]: 7.93 µM (inactive) | GI50 [33]: 13.7 µM (inactive) | GI50 [34]: 13.9 µM (inactive) | GI50 [58]: 16.7 µM (inactive) | GI50 [35]: 14.7 µM (inactive) | GI50 [36]: 4.45 µM (inactive) | GI50 [37]: 15.7 µM (inactive) | GI50 [38]: 22.4 µM (inactive) | GI50 [39]: 20.3 µM (inactive) | GI50 [40]: 14.3 µM (inactive) | GI50 [41]: 14.8 µM (inactive) | GI50 [42]: 15.7 µM (inactive) | GI50 [43]: 6.55 µM (inactive) | GI50 [44]: 4.31 µM (inactive) | GI50 [45]: 5.81 µM (inactive) | GI50 [46]: 19.4 µM (inactive) | GI50 [47]: 17.4 µM (inactive) | GI50 [48]: 11.6 µM (inactive) | GI50 [49]: 11.9 µM (inactive) | GI50 [50]: 17.1 µM (inactive) | GI50 [59]: 2.44 µM (inactive)

Cc1ccc(/C=C/C(=O)c2sc(-c3cccnc3)nc2C)cc1
GI50 [1]: > 100 µM (inactive) | GI50 [2]: > 100 µM (inactive) | GI50 [3]: > 100 µM (inactive) | GI50 [4]: > 100 µM (inactive) | GI50 [5]: > 100 µM (inactive) | GI50 [6]: > 100 µM (inactive) | GI50 [7]: > 100 µM (inactive) | GI50 [8]: > 100 µM (inactive) | GI50 [9]: > 100 µM (inactive) | GI50 [10]: > 100 µM (inactive) | GI50 [11]: > 100 µM (inactive) | GI50 [13]: > 100 µM | GI50 [14]: > 100 µM (inactive) | GI50 [15]: > 100 µM (inactive) | GI50 [16]: > 100 µM (inactive) | GI50 [52]: > 100 µM (inactive) | GI50 [53]: > 100 µM (inactive) | GI50 [17]: > 100 µM (inactive) | GI50 [18]: > 100 µM (inactive) | GI50 [19]: > 100 µM (inactive) | GI50 [20]: > 100 µM (inactive) | GI50 [54]: > 100 µM (inactive) | GI50 [22]: > 100 µM (inactive) | GI50 [23]: > 100 µM (inactive) | GI50 [24]: > 100 µM (inactive) | GI50 [25]: > 100 µM (inactive) | GI50 [56]: > 100 µM (inactive) | GI50 [26]: > 100 µM (inactive) | GI50 [27]: > 100 µM (inactive) | GI50 [28]: > 100 µM (inactive) | GI50 [57]: > 100 µM (inactive) | GI50 [30]: > 100 µM (inactive) | GI50 [31]: > 100 µM (inactive) | GI50 [32]: 98.9 µM (inactive) | GI50 [33]: > 100 µM (inactive) | GI50 [58]: > 100 µM (inactive) | GI50 [35]: > 100 µM (inactive) | GI50 [37]: > 100 µM (inactive) | GI50 [38]: > 100 µM (inactive) | GI50 [39]: > 100 µM (inactive) | GI50 [40]: > 100 µM (inactive) | GI50 [43]: > 100 µM (inactive) | GI50 [45]: > 100 µM (inactive) | GI50 [46]: > 100 µM (inactive) | GI50 [47]: > 100 µM (inactive) | GI50 [48]: > 100 µM (inactive) | GI50 [49]: > 100 µM (inactive) | GI50 [50]: > 100 µM (inactive)
